One data set has as its system HBV. Kind of data set: HBV-DNA antiviral assay using HepG2.117 cells. It counts as cell-based, HBV genotype D. As to conditions: Hepatitis B virus, HepG2.117, 72 h. As to the method: (§1) The following assay procedure describes the HBV antiviral assay, using HepG2.117 cells, which carry a stably integrated genotype D HBV genome under the control of a Tet-off promoter, and intracellular HBV DNA quantification as endpoint. Cell viability is assessed in parallel by measuring the intracellular ATP content using CellTiter-Glo 2.0 (Promega).
On day 0, HepG2.117 cells (which are maintained in routine cell culture with doxycycline present in the medium at a final concentration of 1 μg/mL) are seeded in 96-well plates (white with clear bottom) at a density of 2.0×10^4 cells/well (0.1 mL/well) in medium without doxycycline to induce pgRNA transcription and subsequent formation of HBV particles. The cells are incubated at 37° C. and 5% CO2.
(§2) On day 1, medium is removed from each well, the test articles are diluted in culture medium without doxcycyline and 100 μL was added to cell culture wells (9 concentrations, 4-fold dilution). For each plate, 6 untreated (merely DMSO) wells are included. The final concentration of DMSO in the culture medium is 2%. Each plate is prepared in duplicate (one for HBV DNA extraction, one for CellTiter-Glo 2.0 measurement). The cells are incubated at 37° C. and 5% CO2 for 3 days.
(§3) On day 4, cell viability is assessed using CellTiter-Glo 2.0 and cell lysates are prepared for HBV DNA extraction and subsequent quantification by qPCR.
HBV DNA Quantification by qPCR
Medium is removed from each well and 100 μL of 0.33% NP-40 in H2O was added to each well. Plates are sealed, incubated at 4° C. for 5 mins, vortexed extensively and centrifuged briefly. Next, 35 μL of lysate is added to 65 μL QuickExtract DNA Extraction Solution (Epicentre) in a PCR plate for each well. PCR plate is incubated at 65° C. for 6 mins, 98° C. for 2 mins and finally cooled to 4° C. HBV DNA is then quantified by qPCR with HBV-specific primers and probes as specified in Table 3 using the Bio-Rad SSOAdvanced Universal Probes Supermix on a CFX96 machine (Bio-Rad). The PCR cycle program consisted of 95° C. for 3 mins, followed by 40 cycles at 95° C. for 10 sec and 60° C. for 30 sec.
A DNA standard is prepared by dilution of an IDT gBlock corresponding to the amplicon with concentrations ranging from 10^2 to 10^8 copies/input (i.e., per 4 μL) and used to generate a standard curve by plotting Cq values vs. HBV DNA standard concentration. The quantity of HBV DNA in each sample is determined by interpolating from the standard curve.
(§4) Cell viability is calculated as follows: % Cell viability=(luminescence value of test sample)/(average luminescence value of 2% DMSO control)×100%. HBV DNA inhibition was calculated as follows: 100−(HBV DNA copy number of test sample)/(average HBV DNA copy number of 2% DMSO control)×100%. No normalization to entecavir is required due to the excellent dynamic window of this assay. The CC50, EC50 and EC9o values were determined by dose-response curves fitted using non-linear regression.

The nature of data set [1]: Cell viability by CellTiter-Glo 2.0 (intracellular ATP content) in HepG2.117 cells. It counts as cell-based. As to conditions: human, CellTiter-Glo 2.0, 3 days incubation. As to the method:
as §1, §2, §3
Using the other plates, the cell viability is quantified by CellTiter-Glo 2.0 according to the manufacturer's manual. In brief, 100 μL of reagent solution is added to the culture plates and shaken for 2′. The plates are incubated at rt for 10 min and luminescence signal is subsequently measured on a VarioSkan Lux (ThermoFisher) plate reader.
as §4
(In ATP-based viability assays light output follows the ATP content of the culture.)

From US20230382909A1, “BICYCLIC COMPOUNDS” (Aligos Therapeutics, Inc., priority 2022, published 2023) come the findings set out here.

Where only a bound is given, the exact number is not on record here.

Broadly, the EC50 is the concentration that produces a half-maximal response. A lower EC50 goes with an effect from little substance. By CC50 is commonly meant the concentration at which the toxic effect on the cells reaches its halfway point. In the case of `Cc1cc(C)n(-c2nc3c(c(=O)n2-c2ccc(N4CC(O)C4)nc2)C[C@@H](C)N(C(=O)c2ccc(Br)c(C(F)(F)F)c2)C3)n1` [Compound 32, (6R)-7-[4-bromo-3-(trifluoromethyl)benzoyl]-2-(3,5-dimethylpyrazol-1-yl)-3-[6-(3-hydroxyazetidin-1-yl)-3-pyridyl]-6-methyl-6,8-dihydro-5H-pyrido[3,4-d]pyrimidin-4-one], the concentration giving a half-maximal response (EC50) in the data set on HBV was less than 50 nM. In addition, in data set [1], the CC50 at 3 days is greater than 500 nM.
In the data set on HBV, `CNC(=O)c1ccc(-n2c(-n3nc(C)cc3C)nc3c(c2=O)C[C@@H](C)N(C(=O)c2ccc(Br)c(C(F)(F)F)c2)C3)cn1` [Compound 18, 5-[(6R)-7-[4-bromo-3-(trifluoromethyl)benzoyl]-2-(3,5-dimethylpyrazol-1-yl)-6-methyl-4-oxo-6,8-dihydro-5H-pyrido[3,4-d]pyrimidin-3-yl]-N-methyl-pyridine-2-carboxamide] came in with an EC50 of less than 50 nM. The compound further gave a CC50 at 3 days in data set [1] greater than 500 nM.
`Cc1cc(C)n(-c2nc3c(c(=O)n2-c2cc(F)c4c(c2)ncn4C)C[C@@H](C)N(C(=O)c2ccc(Br)c(C(F)(F)F)c2)C3)n1` [Compound 22, (6R)-7-[4-bromo-3-(trifluoromethyl)benzoyl]-2-(3,5-dimethylpyrazol-1-yl)-3-(7-fluoro-1-methyl-benzimidazol-5-yl)-6-methyl-6,8-dihydro-5H-pyrido[3,4-d]pyrimidin-4-one] gave an EC50 in the data set on HBV of less than 50 nM. Moreover, the CC50 at 3 days in data set [1] is greater than 500 nM.
The matching figures for `Cc1cc(C)n(-c2nc3c(c(=O)n2-c2ccc(N4CC[C@H](O)C4)nc2)C[C@@H](C)N(C(=O)c2ccc(Br)c(C(F)(F)F)c2)C3)n1` [Compound 33, (6R)-7-[4-bromo-3-(trifluoromethyl)benzoyl]-2-(3,5-dimethylpyrazol-1-yl)-3-[6-[(3S)-3-hydroxypyrrolidin-1-yl]-3-pyridyl]-6-methyl-6,8-dihydro-5H-pyrido[3,4-d]pyrimidin-4-one]: less than 50 nM and greater than 500 nM.
For `Cc1cc(C)n(-c2nc3c(c(=O)n2-c2ccc(NC[C@@H](C)O)nc2)C[C@@H](C)N(C(=O)c2ccc(Br)c(C(F)(F)F)c2)C3)n1` [Compound 8, (R)-7-(4-bromo-3-(trifluoromethyl)benzoyl)-2-(3,5-dimethyl-1H-pyrazol-1-yl)-3-(6-(((R)-2-hydroxypropyl)amino)pyridin-3-yl)-6-methyl-5,6,7,8-tetrahydropyrido[3,4-d]pyrimidin-4(3H)-one], the EC50 in the data set on HBV was less than 50 nM. In data set [1], the CC50 at 3 days was greater than 500 nM.
Consider `Cc1cc(C)n(-c2nc3c(c(=O)n2-c2ccc(N4CCOCC4)nc2)C[C@@H](C)N(C(=O)c2ccc(Br)c(C(F)(F)F)c2)C3)n1` [Compound 27, (6R)-7-[4-bromo-3-(trifluoromethyl)benzoyl]-2-(3,5-dimethylpyrazol-1-yl)-6-methyl-3-(6-morpholino-3-pyridyl)-6,8-dihydro-5H-pyrido[3,4-d]pyrimidin-4-one], for which, in the data set with HBV, the EC50 is less than 50 nM. The CC50 at 3 days in data set [1] is greater than 500 nM.
Compound `Cc1cc(C)n(-c2nc3c(c(=O)n2-c2ccc(O[C@H]4C[C@H](O)C4)nc2)C[C@@H](C)N(C(=O)c2ccc(Br)c(C(F)(F)F)c2)C3)n1` [Compound 40, (R)-7-(4-bromo-3-(trifluoromethyl)benzoyl)-2-(3,5-dimethyl-1H-pyrazol-1-yl)-3-(6-((1r,3R)-3-hydroxycyclobutoxy)pyridin-3-yl)-6-methyl-5,6,7,8-tetrahydropyrido[3,4-d]pyrimidin-4(3H)-one] had an EC50 with HBV of less than 50 nM. This compound had a CC50 at 3 days in data set [1] greater than 500 nM.
The matching figures for `Cc1cc(C)n(-c2nc3c(c(=O)n2-c2ccc(OC[C@H](C)OP(=O)(O)O)cc2)C[C@@H](C)N(C(=O)c2ccc(Br)c(C(F)(F)F)c2)C3)n1` [Compound 12, (S)-1-(4-((R)-7-(4-bromo-3-(trifluoromethyl)benzoyl)-2-(3,5-dimethyl-1H-pyrazol-1-yl)-6-methyl-4-oxo-5,6,7,8-tetrahydropyrido[3,4-d]pyrimidin-3(4H)-yl)phenoxy)propan-2-yl dihydrogen phosphate]: 50 to 500 nM and greater than 500 nM.
The matching figures for `Cc1cc(C)n(-c2nc3c(c(=O)n2-c2cnc4c(ncn4C)n2)C[C@@H](C)N(C(=O)c2ccc(Br)c(C(F)(F)F)c2)C3)n1` [Compound 20, (6R)-7-[4-bromo-3-(trifluoromethyl)benzoyl]-2-(3,5-dimethylpyrazol-1-yl)-6-methyl-3-(1-methylimidazo[4,5-b]pyrazin-5-yl)-6,8-dihydro-5H-pyrido[3,4-d]pyrimidin-4-one]: less than 50 nM and greater than 500 nM.
For the compound `Cc1cc(C)n(-c2nc3c(c(=O)n2-c2ccc(N4CCN(C)CC4)nc2)C[C@@H](C)N(C(=O)c2ccc(Br)c(C(F)(F)F)c2)C3)n1` [Compound 11, (R)-7-(4-bromo-3-(trifluoromethyl)benzoyl)-2-(3,5-dimethyl-1H-pyrazol-1-yl)-6-methyl-3-(6-(4-methylpiperazin-1-yl)pyridin-3-yl)-5,6,7,8-tetrahydropyrido[3,4-d]pyrimidin-4(3H)-one], the EC50 in the data set on HBV is less than 50 nM. The CC50 at 3 days in data set [1] was greater than 500 nM.
The compound `Cc1cc(C)n(-c2nc3c(c(=O)n2-c2ccc(OCC(N)=O)cc2)C[C@@H](C)N(C(=O)c2ccc(Br)c(C(F)(F)F)c2)C3)n1` [Compound 5, (R)-2-(4-(7-(4-bromo-3-(trifluoromethyl)benzoyl)-2-(3,5-dimethyl-1H-pyrazol-1-yl)-6-methyl-4-oxo-5,6,7,8-tetrahydropyrido[3,4-d]pyrimidin-3(4H)-yl)phenoxy)acetamide] showed an EC50 in the data set on HBV of less than 50 nM. Also, the CC50 at 3 days in data set [1] was greater than 500 nM.
Consider `Cc1cc(C)n(-c2nc3c(c(=O)n2-c2ccc(O[C@H]4C[C@@H](O)C4)nc2)C[C@@H](C)N(C(=O)c2ccc(Br)c(C(F)(F)F)c2)C3)n1` [Compound 39, (R)-7-(4-bromo-3-(trifluoromethyl)benzoyl)-2-(3,5-dimethyl-1H-pyrazol-1-yl)-3-(6-((1s,3S)-3-hydroxycyclobutoxy)pyridin-3-yl)-6-methyl-5,6,7,8-tetrahydropyrido[3,4-d]pyrimidin-4(3H)-one], for which the EC50 in the data set with HBV was less than 50 nM. The CC50 at 3 days in data set [1] was greater than 500 nM.
